{"source": "paper PMC3002932", "about": "(PLoS ONE, 2010)", "key": {"[1]": {"test_system": "human red blood cells (hRBCs)", "type": "cell-based", "experimental": "Heparinized fresh blood (∼3 ml) was collected from an anonymous donor. A 200 µl aliquot was removed and washed 4× with 800 µl of cold PBS at RT for 3 min at ∼500×g. After each centrifugation, 780 µl of supernatant was removed. After the last wash, the supernatant was completely removed and the packed red blood cells were diluted 1∶20 in PBS to prepare a 5% v/v stock suspension of hRBCs.\nAll experiments were carried out in triplicate using 96-well microplate (Costar 3596) and the OD at 700 nm was monitored every 30 s. employing the SpectraMAX 250 microplate reader (Molecular Devices, Sunnyvale, CA). Controls included PBS, untreated human RBCs, and human RBCs +2.5% Triton (100% lysis). The hemolytic effect was calculated as follows: [drawing 1]"}, "[2]": {"molecular_target": "gp120LAV (Human immunodeficiency virus type 1 group M subtype B, UniProt P03377)", "settings": "SPR, BIAcore CM5 chip, HBS-EP pH = 7.4; KD±SEM, average from at least 5 independent experiments", "experimental": "(§1) Surface plasmon resonance (SPR) studies were performed on a BIAcore 3000 system (BiaCore AB, Piscataway, NJ), using BIAcore CM5 sensor chips and HBS-EP running buffer (pH = 7.4) containing 10 mM HEPES, 150 mM NaCl, 3 mM EDTA, and 0.005% polysorbate 20. Proteins/peptides were immobilized on a CM5 sensor chip using the amine coupling method. The chip was activated by mixing 400 mM N-ethyl-N-(3-dimethylaminopropyl)-carbodiimide hydrochloride and 100 mM N-hydroxysuccinimide. Residual reactive groups on the chip surface were blocked using 1.0 M ethanolamine/HCl (pH = 8.5). The flow cell-1 chamber, which served as a control, lacked immobilized protein but was treated with N-ethyl-N-(3-dimethylaminopropyl)-carbodiimide hydrochloride, N-hydroxysuccinimide, and ethanolamine/HCl. Binding signals were corrected for nonspecific binding by subtracting the flow cell-1 signal. To regenerate chip surfaces, bound ligands were removed with 10 mM HCl. Data were analyzed with BIAevaluation 4.1 software (Biacore, Piscataway, NJ)."}, "[3]": {"molecular_target": "gp41 (Human immunodeficiency virus type 1 group M subtype B, UniProt P03375)", "sequence (P03375 512-856)": "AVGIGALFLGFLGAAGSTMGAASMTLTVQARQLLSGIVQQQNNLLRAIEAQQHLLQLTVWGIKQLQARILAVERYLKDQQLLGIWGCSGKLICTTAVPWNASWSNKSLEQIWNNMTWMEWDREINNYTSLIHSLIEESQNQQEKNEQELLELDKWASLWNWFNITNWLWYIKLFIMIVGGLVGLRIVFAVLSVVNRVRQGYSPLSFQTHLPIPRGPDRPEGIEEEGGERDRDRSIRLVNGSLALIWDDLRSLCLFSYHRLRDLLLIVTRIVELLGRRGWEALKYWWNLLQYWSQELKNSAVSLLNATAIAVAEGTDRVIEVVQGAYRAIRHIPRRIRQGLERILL", "settings": "SPR, BIAcore CM5 chip, HBS-EP pH = 7.4; KD±SEM, average from at least 5 independent experiments", "experimental": "as §1"}, "[4]": {"assay": "FTIR spectroscopy secondary structure", "type": "physicochemical", "experimental": "Infrared spectra were recorded at 25°C using a Bruker Vector 22™ FTIR spectrometer with a deuterated triglycine sulfate (DTGS) detector, and averaged over 256 scans at a gain of 4 with a resolution of 2 cm^−1. Peptide samples were initially freeze-dried several times from 10 mM HCl in D2O to remove any interfering counter ions and residual H2O. Solution spectra of peptides were made in deuterated 10 mM phosphate buffer, pD = 7.4 (pD = pH+0.4) and in structure promoting mixed solvent-buffer solutions (trifluoroethanol (TFE) or hexafluoroiso propanol (HFIP). Spectra were acquired using a temperature controlled, demountable liquid cell with calcium fluoride windows fitted with a 50 µm thick spacer (Harrick Scientific, Pleasantville, NY). The relative proportions of α-helix, β-turn, β-sheet, and disordered conformations of solution and multilayer IR spectra were determined by Fourier self-deconvolution for band narrowing and area calculations of component peaks of the FTIR spectra using curve-fitting software supplied by Galactic Software (GRAMS/AI, version 8.0; Thermo Electron Corp., Waltham, MA). The frequency limits for the different structures were: α-helix (1662–1645 cm^−1), β-sheet (1637–1613 and 1710–1682 cm^−1), turns (1682–1662 cm^−1), and disordered or random (1650–1637 cm^−1)."}, "[5]": {"test_system": "TZM-bl cells", "assay": "MTT reduction in TZM-bl cells", "type": "cell-based", "settings": "Figure 8", "experimental": "Cell viability experiments were carried out using CytoTox-Glo™ Assay (Promega Corp., Madison, WI) and cytotoxicity was analyzed using an MTT-based cell proliferation kit (Boehringer Mannheim, Indianapolis, IN) Both tests were performed according to manufacturer's instructions. MTT is 3-(4,5-dimethylthiazol-2-yl)-2,5-diphenyltetrazolium bromide. Experiments utilizing vaginal epithelial cells (VECs) were carried out as previously described."}, "[6]": {"test_system": "CXCR4 (HIV-1IIIB)", "assay": "p24^gag antigen release assay using PBMCs, CXCR4 strain", "type": "cell-based", "settings": "PBMC based p24^gag antigen release assay"}, "[7]": {"test_system": "HIV-1 (BaL)", "type": "cell-based", "settings": "TZM-bl assay; HIV-1 BaL (R5); 24 hr; luciferase activity", "description": "The ability of the analogs to inhibit HIV infection was determined with an assay that determines viral infectivity with an LTR-mediated luciferase reporter construct [37]. In brief, TZM-bl reporter cells are HeLa-derived JC53-BL cells that express high levels of CD4, CXCR4, and CCR5. They also contain reporter cassettes for luciferase and β-galactosidase, both driven by the HIV-1 long terminal repeat [38]). 24 hr after these reporter cells were exposed to R5 lab-adapted strains of HIV-1 (BaL) in the presence of peptides, protection was measured as % reduction in luciferase activity (relative light units) compared to cells infected with virus and peptide vehicle alone."}, "[8]": {"test_system": "CCR5 (HIV-1BAL)", "assay": "p24^gag antigen release assay using PBMCs, CCR5 strain", "type": "cell-based", "settings": "PBMC based p24^gag antigen release assay"}, "[9]": {"type": "physicochemical", "settings": "for Molecular weight range: 20 mM NaH2PO4, 20°C, 280 nm; for OD280 lost on centrifugation / weight-average molecular weight: 20 mM NaH2PO4", "experimental": "Sedimentation equilibrium was performed at 20°C in a Beckman Optima XL-A analytical ultracentrifuge using absorption optics at 280 nm. Twelve mm path length double sector cells were used for all samples. Samples (OD280 = 0.7 and OD280 = 0.15)) were in 20 mM NaH2PO4. Sedimentation equilibrium profiles were measured at speeds of 3000, 7000, 11000, 24000 and 36000 rpm. The data were fitted with a nonlinear least-squares exponential fit for a single ideal species using the Beckman Origin-based software (Version 3.01 A partial specific volume of 0.739 was estimated from the amino acid composition using 0.9 (the partial specific volume of a leucine residue) for the partial specific volume of cyclohexylalanine and cyclohexylglycine. It was then corrected to 20°C [47]."}, "[10]": {"assay": "NMR studies of oligomerization (data not shown)", "type": "physicochemical", "settings": "water, DMSO and their mixtures; limited NMR studies (data not shown)"}, "[11]": {"molecular_target": "gp120BAL", "assay": "SPR binding to gp120BAL", "parameters": "species or system HIV-1", "settings": "BIAcore CM5 chip, HBS-EP pH = 7.4, KD±SEM, average from at least 5 independent experiments"}, "[12]": {"settings": "0.5 mM in 10 mM phosphate buffer pH = 7.5, 25°C"}, "[13]": {"settings": "0.5 mM in HFIP:10 mM phosphate buffer pH = 7.5 (4∶6, v∶v), 25°C"}, "[14]": {"settings": "0.5 mM in TFE:10 mM phosphate buffer pH = 7.5 (4∶6, v∶v), 25°C"}}, "note": "Read-outs that look alike come from different tables or passages of the source.", "data": [{"substance": "Cha-SC-Chg-R-Chg-RSGSY-Cha-DN-Chg-R-Chg-(D)Cys-CONH2 (disulfide) [GRFN-1]", "values": [{"measurement": "Hemolysis", "setting": "[1]; 2.5 µM", "value": "1.2±0.7", "unit": "%"}, {"measurement": "Hemolysis", "setting": "[1]; 5 µM", "value": "2.8±2.3", "unit": "%"}, {"measurement": "Hemolysis", "setting": "[1]; 10 µM", "value": "7.3±1.3", "unit": "%"}, {"measurement": "Kd", "setting": "[2]", "value": "2240 ± 810", "unit": "nM"}, {"measurement": "Kd", "setting": "[3]", "value": "3000 ± 1310", "unit": "nM"}, {"measurement": "disordered", "setting": "[4]; [12]", "value": 27.6, "unit": "%"}, {"measurement": "turns", "setting": "[4]; [12]", "value": 22.4, "unit": "%"}, {"measurement": "α-helix", "setting": "[4]; [12]", "value": 12.4, "unit": "%"}, {"measurement": "β-sheet", "setting": "[4]; [12]", "value": 37.6, "unit": "%"}, {"measurement": "disordered", "setting": "[4]; [13]", "value": 25.8, "unit": "%"}, {"measurement": "turns", "setting": "[4]; [13]", "value": 17.2, "unit": "%"}, {"measurement": "α-helix", "setting": "[4]; [13]", "value": 48.6, "unit": "%"}, {"measurement": "β-sheet", "setting": "[4]; [13]", "value": 8.4, "unit": "%"}, {"measurement": "disordered", "setting": "[4]; [14]", "value": 24.8, "unit": "%"}, {"measurement": "turns", "setting": "[4]; [14]", "value": 20.3, "unit": "%"}, {"measurement": "α-helix", "setting": "[4]; [14]", "value": 23.2, "unit": "%"}, {"measurement": "β-sheet", "setting": "[4]; [14]", "value": 31.7, "unit": "%"}, {"measurement": "secondary structure (in words)", "setting": "[4]; TFE:buffer and HFIP:buffer", "value": "shift from β-sheet to more helical conformations"}, {"measurement": "secondary structure (in words)", "setting": "[4]; aqueous buffer", "value": "dominant β-sheet structure"}, {"measurement": "inhibition of cellular dehydrogenase activity (MTT reduction)", "setting": "[5]", "value": "appeared to inhibit cellular dehydrogenase activity (as gauged by MTT reduction) in a dose dependent manner"}, {"measurement": "antiviral activity (in words)", "setting": "[6]", "value": "maintained their antiviral activity"}, {"measurement": "EC50", "setting": "[7]", "value": "191 ± 11", "unit": "nM"}, {"measurement": "antiviral activity (in words)", "setting": "[8]", "value": "maintained their antiviral activity"}, {"measurement": "Molecular weight range", "setting": "[9]; 3K rpm (limited data)", "value": "∼150000 Da"}, {"measurement": "Molecular weight range", "setting": "[9]; 7K rpm", "value": "68500–84700 Da"}, {"measurement": "Molecular weight range", "setting": "[9]; 11K rpm", "value": "8950–38100 Da"}, {"measurement": "Molecular weight range", "setting": "[9]; 24K rpm", "value": "2541–6200 Da"}, {"measurement": "Molecular weight range", "setting": "[9]; 36K rpm", "value": "2245–2940 Da"}, {"measurement": "OD280 lost on centrifugation", "setting": "[9]; 3000 rpm", "value": "less than 5%"}, {"measurement": "weight-average molecular weight", "setting": "[9]; 7000 rpm, remaining heterogeneous material", "value": "about 69000"}, {"measurement": "OD280 lost on centrifugation", "setting": "[9]; 7000 rpm", "value": "Approximately two-thirds"}, {"measurement": "weight-average molecular weight", "setting": "[9]; early scans, after 16 hours, 3000 rpm", "value": "about 150,000"}, {"measurement": "turbidity", "setting": "[9]; initially dissolved in 20 mM NaH2PO4", "value": "slightly turbid solution"}, {"measurement": "aggregation state (in words)", "setting": "[9]; sedimentation equilibrium, diluted salt", "value": "high molecular weight soluble aggregates with some monomer present"}, {"measurement": "oligomerization (in words)", "setting": "[10]", "value": "Oligomerization of GRFN-1 in various solvents (water, DMSO and their mixtures) was suggested"}, {"measurement": "Kd", "setting": "[11]", "value": "1060 ± 220", "unit": "nM"}]}]}
